Among the data in US10196359B2, “2-alkyloxy benzene formyl arylamine compound and pharmaceutical use thereof” (FUDAN UNIVERSITY, priority 2014, dated 2019) are inhibition rate, IC50 and inhibition values, retold here.

Where two headings read alike, the source gives them in different places. Bounds are passed on as bounds.

The experiment concerns the target T1, Sphingomyelin Synthase 2 (SMS2) (Homo sapiens, UniProt Q8NHU3).
T1 construct: made in house; used as homogenate
T1 sequence (Q8NHU3 1-365): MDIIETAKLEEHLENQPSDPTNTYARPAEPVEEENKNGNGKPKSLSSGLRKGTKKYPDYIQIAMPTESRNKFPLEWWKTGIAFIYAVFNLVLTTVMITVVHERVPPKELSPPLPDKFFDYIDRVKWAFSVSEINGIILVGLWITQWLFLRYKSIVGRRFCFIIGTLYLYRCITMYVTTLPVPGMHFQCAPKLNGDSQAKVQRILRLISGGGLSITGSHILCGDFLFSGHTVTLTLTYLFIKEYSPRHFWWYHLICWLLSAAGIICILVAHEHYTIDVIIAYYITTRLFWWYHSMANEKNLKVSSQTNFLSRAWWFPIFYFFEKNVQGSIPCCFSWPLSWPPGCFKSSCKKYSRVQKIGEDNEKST
The experiment can be described thus: In vitro inhibition of sphingomyelin synthase 2, HPLC fluorogenic quantitative detecting method (C6-NBD-ceramide to C6-NBD-SM, SMS2 high-expressed insect cell homogenate). The following applies: for IC50: read-out: SMS2 Median Inhibitory Concentration IC50. It counts as biochemical. From the text:
The second aim of the present invention is to show the use of 2-alkoxy benzene formyl arylamines in preparing SMS small-molecule inhibitors. This invention evaluate SMS inhibitory activity of 2-alkoxy benzene formyl arylamines as scheme I through HPLC fluorogenic quantitative detecting method reported (Xiaodong Deng; Hong Sun; et al. Analytical Letters, 2012, 45:12, 1581-1589), which can make it possible to calculate the catalytic activity difference of SMS treated with inhibitors or not through content changes of NBD-ceramide and NBD-sphingomyelin.
9. The organic solvents were purchased from Shanghai Sinopharm Reagent Company; methanol is of HPLC grade; water is ultrapure water filtrated by Milli-Q pump and deionized and ultrafiltrated by 0.22 μm ultrafiltration membrane. Other biological supplies are purchased in domestic companies. 10. Preparation of SMS homogenate extraction buffer (Buffer1): (50 mM Tris hydrochloride, pH 7.4, 5% anhydrous sucrose, 1 mM ethylenediaminetetraacetic acid) 1.2114 g tris(hydroxymethyl)aminomethane hydrochloride (Tris-HCl) was dissolved in 100 ml distilled water. Then 84 ml 0.1 mol/L hydrochloric acid was added. Constant volume to 200 ml. Finally, 10 g sucrose and 58.45 mg EDTA were dissolved in the mixture. 11. Preparation of SMS test buffer […]: (100 mM Hepes, 30 mM MnCl2, 3% fatty acid free BSA): 1.1916 g 4-(2-hydroxyethyl)-1-peperazineethanesulfonic acid (Hepes), 0.2969 g MnCl2.4H2O and 0.3 g fatty acid free bovine serum albumin were dissolved in distilled water then constant volume to 50 ml. 12. Preparation of under tested compound solution: To each accurate weighed compound for 1˜2 mg, an appropriate amount of DMSO was added to formulate a stock solution of 6 mM precisely. To a certain volume of the DMSO stock solution of the test compound, the appropriate volume of DMSO was added to dilute the solution to the desired concentration. 13. SMS2 high-expressed insect cell homogenate was prepared by Xu Yanhui group from Institutes of Biomedical Sciences, Fudan University. Part 1 Activity Assay for Inhibition of 2-Alkoxy-Benzoyl Aromatic Amines to Sphingomyelin Synthase 2
250 μL tri-distilled water, 30 μL Buffer2, 4 μL SMS2 high-expressed insect cell homogenate (total protein content is 0.5 μg/μL) and 10 μL DMSO or DMSO solution of under tested compound were added to 1.5 mL eppendorf tube, vortex mixed for 30 seconds and then incubated in a 37° C. water bath for 0.5 h. 3 μL ethanol solution of DMPC (40 mM) and 3 μL ethanol solution of C6-NBD-Ceramide (1.16 mM) were added, vortex mixed for 30 seconds, and then incubate in a 37° C. water bath for 2.0 hours. To it 600 μL anhydrous ethanol was added vortex mixed for 1 minute and centrifuged 10 minutes in 10000 rpm and 600 μL supernatant was taken out and stored at 4° C. for HPLC analysis.
Using the same HPLC fluorogenic quantitative detecting method as reference (Xiaodong Deng; Hong Sun; et al. Analytical Letters, 2012, 45:12, 1581-1589) to analysize samples obtained above. Analysize and record peak areas of C6-NBD-SM (Asm) and C6-NBD-Ceramide (Acer) of each sample from blank group, positive control group (compound D2) and under tested compound group. The data were parallelly determined for 3 times. Calculate inhibition rate from the formula below: […]
The DMSO stock solution of under tested compound (6 mM) was diluted stepwise into five concentration gradient. 10 μL solution of each concentration was added into the trial system to prepare samples with the method mentioned in the first step of application case 12. The Asm values of the five concentration solution of tested compound were measured, and the inhibition rate under the five concentration were calculated and fitted to obtain median inhibitory concentration (IC50). Each compound was measured three parallel groups. SMS2 median inhibitory concentration of Scheme I-1˜I-60 are listed below in Table 1: […]

Setting [1] is: five concentrations, three parallel groups, experimental value.
The mark [2] stands for this setting: at 10 μM, read-out: inhibition rate.

Take “2-((2-ethoxy) benzyloxy)-N-(pyridin-3-yl) benzamide [Scheme I-30]”: the inhibition rate (at 10 μM) is 86.3%. Moreover, under setting [1], the IC50 came out at 1200 nM.
As for `O=C(Nc1cccnc1)c1cc([N+](=O)[O-])ccc1OCc1ccccc1Cl` [Scheme I-57, 2-(2-chloro-benzyloxy)-5-nitro-N-(pyridin-3-yl) benzamide], the inhibition at 10 µM under setting [2] was determined as 1.7%. The IC50 under setting [1] is greater than 100000 nM.
On to “2-((3-methoxy) benzyloxy)-N-(pyridin-3-yl) benzamide [Scheme I-23]”, for which the inhibition rate (at 10 μM) was found to be 59.8%. Under setting [1], the IC50 was 5700 nM.
Consider `O=C(Nc1cccnc1)c1ccccc1OCc1cccc(Cl)c1F` [Scheme I-18, 2-((2-fluoro-3-chloro)benzyloxy)-N-(pyridin-3-yl) benzamide], for which the IC50 stood at 3100 nM. Also, the inhibition at 5 µM (read-out: inhibition rate) was 55.2%.
For `O=C(Nc1cccnc1)c1ccccc1OCc1cccc(Cl)c1` [Scheme I-7, 2-(3-chloro-benzyloxy)-N-(pyridin-3-yl) benzamide], the IC50 turned out to be 1400 nM. The inhibition at 5 µM (read-out: inhibition rate) stood at 70.6%.
Take `COCCOc1ccc(Cl)cc1COc1ccccc1C(=O)Nc1cccnc1` [Scheme I-50, 2-((5-chloro-2-(2-methoxyethoxy))benzyloxy)-N-(pyridin-3-yl) benzamide]: under setting [2], the inhibition at 10 µM turned out to be 54.2%. Moreover, the IC50 under setting [1] came out at 11600 nM.
The like results for `O=C(O)COc1cccc(COc2ccccc2C(=O)Nc2cccnc2)c1` [Scheme I-48, 2-(3-((2-(pyridin-3-ylcarbamoyl)phenoxy)methyl)phenoxy) acetic acid] were, in that order, 3% and greater than 100000 nM.
The matching figures for `O=C(Nc1cccnc1)c1ccc(Cl)cc1OCc1ccccc1Cl` [Scheme I-56, 4-Chloro-2-(2-chloro-benzyloxy)-N-(pyridin-3-yl) benzamide]: 20% and greater than 50000 nM.
Take `Cc1ccccc1COc1ccccc1C(=O)Nc1cccnc1` [Scheme I-11, 2-((2-methyl)benzyloxy)-N-(pyridin-3-yl) benzamide]: the IC50 was determined as 1500 nM. Further, the inhibition at 5 µM (read-out: inhibition rate) came to 71.3%.
For the compound “2-((4-cyano) benzyloxy)-N-(pyridin-3-yl) benzamide [Scheme I-15]”, the inhibition rate (at 50 μM) was 15.0%. For the same compound, the IC50 under setting [1] is greater than 100000 nM.
With “2-((5-chloro-2-heptyloxy) benzyloxy)-N-(pyridin-3-yl) benzamide [Scheme I-40]”, the inhibition rate (at 5 μM) was 87.1%. Moreover, the IC50 under setting [1] was 400 nM.
On to `O=C(Nc1ccccn1)c1ccccc1OCc1ccccc1` [Scheme I-52, 2-benzyloxy-N-(pyridin-2-yl) benzamide], for which the inhibition at 100 µM (at 100 μM, read-out: inhibition rate) is 60.1%. Moreover, the IC50 under setting [1] is 11700 nM.
As to `Cc1c(Cl)cccc1COc1ccccc1C(=O)Nc1cccnc1` [Scheme I-44, 2-((3-chloro-2-methyl)benzyloxy)-N-(pyridin-3-yl) benzamide], the inhibition rate (at 5 μM) turned out to be 47.0%. The IC50 under setting [1] was 3800 nM.
In the case of `O=C(Nc1cccnc1)c1ccccc1OCc1c(Cl)cccc1Cl` [Scheme I-17, 2-((2,6-dichlorophenyl)benzyloxy)-N-(pyridin-3-yl) benzamide], the inhibition at 5 µM (at 5 μM, read-out: inhibition rate) came out at 77.2%. In addition, under setting [1], the IC50 amounted to 700 nM.
The compound `O=C(Nc1cccnc1)c1ccccc1OCc1ccccc1C(F)(F)F` [Scheme I-42, 2-((2-trifluoromethyl)benzyloxy)-N-(pyridin-3-yl) benzamide] registered an inhibition rate (at 5 μM) of 65.5%. In addition, the IC50 under setting [1] was 2100 nM.
Turning to “2-((2,5-dimethoxy) benzyloxy)-N-(pyridin-3-yl) benzamide [Scheme I-25]”, under “at 10 μM”, the inhibition rate worked out at 78.9%. Moreover, the IC50 under setting [1] was 2800 nM.
Under “at 10 μM”, “2-((4-ethyl) benzyloxy)-N-(pyridin-3-yl) benzamide [Scheme I-28]” returned an inhibition rate of 10.1%. For the same compound, the IC50 under setting [1] was greater than 100000 nM.
Consider `O=C(O)COc1ccccc1COc1ccccc1C(=O)Nc1cccnc1` [Scheme I-47, 2-(2-((2-(pyridin-3-ylcarbamoyl)phenoxy)methyl)phenoxy) acetic acid], for which the inhibition at 10 µM under setting [2] is 7.4%. Also, under setting [1], the IC50 was greater than 100000 nM.
Turning to “2-((2-benzyloxy) benzyloxy)-N-(pyridin-3-yl) benzamide [Scheme I-26]”, the inhibition rate (at 10 μM) is recorded as 76.9%. Also, the IC50 under setting [1] worked out at 2200 nM.
Turning to `O=C(Nc1cccnc1)c1cc(Cl)ccc1OCc1c(Cl)cccc1Cl` [Scheme I-54, 5-chloro-2-((2,6-dichlorophenyl)benzyloxy)-N-(pyridin-3-yl) benzamide], the inhibition at 10 µM under setting [2] stood at 42.3%. Moreover, the IC50 under setting [1] is greater than 25000 nM.
`O=C(Nc1cccnc1)c1ccccc1OCc1cccc(C(F)(F)F)c1` [Scheme I-41, 2-((3-trifluoromethyl)benzyloxy)-N-(pyridin-3-yl) benzamide]: the inhibition at 10 µM under setting [2] was 10%. For the same compound, the IC50 under setting [1] was greater than 100000 nM.
For `CCCCCCCOc1ccccc1COc1ccccc1C(=O)Nc1cccnc1` [Scheme I-38, 2-((2-heptyloxy)benzyloxy)-N-(pyridin-3-yl) benzamide], the inhibition at 10 µM under setting [2] is 90.5%. Moreover, under setting [1], the IC50 turned out to be 500 nM.
In the case of `O=C(Nc1cccnc1)c1ccccc1OCc1ccccc1OCCCCCCCl` [Scheme I-36, 2-(2-(6-Chloro-hexyloxy)benzyloxy)-N-(pyridin-3-yl) benzamide], the inhibition at 10 µM under setting [2] worked out at 91.5%. For the same compound, the IC50 under setting [1] is 500 nM.
For “2-(3-bromo-benzyloxy)-N-(pyridin-3-yl) benzamide [Scheme I-8]”, the inhibition rate (at 50 μM) is reported as 67.1%. In addition, under setting [1], the IC50 was greater than 50000 nM.
As for “2-((2-nitro) benzyloxy)-N-(pyridin-3-yl) benzamide [Scheme I-12]”, for the setting “at 50 μM”, the inhibition rate is given as 35.5%. For the same compound, the IC50 under setting [1] was greater than 50000 nM.
Turning to “2-((2,5-dichloro) benzyloxy)-N-(pyridin-3-yl) benzamide [Scheme I-33]”, the inhibition rate (at 10 μM) is 87.9%. For the same compound, the IC50 under setting [1] is 1000 nM.
For the compound `COc1ccccc1COc1ccccc1C(=O)Nc1cccnc1` [Scheme I-24, 2-((2-methoxy)benzyloxy)-N-(pyridin-3-yl) benzamide], the inhibition at 10 µM under setting [2] came out at 89.4%. The IC50 under setting [1] amounted to 800 nM.
The like results for `CCOC(=O)COc1cccc(COc2ccccc2C(=O)Nc2cccnc2)c1` [Scheme I-22] were, in that order, 15.3% and greater than 100000 nM.
As for `COc1ccc(OCc2ccccc2Cl)c(C(=O)Nc2cccnc2)c1` [Scheme I-59, 2-(2-chloro-benzyloxy)-5-methoxy-N-(pyridin-3-yl) benzamide], under setting [2], the inhibition at 10 µM came out at 7.2%. Also, the IC50 under setting [1] was greater than 100000 nM.
The matching figures for `O=C(Nc1cccnc1)c1cc(Cl)ccc1OCc1cc(F)ccc1Cl` [Scheme I-55, 5-chloro-2-((2-chloro-5-fluoro)benzyloxy)-N-(pyridin-3-yl) benzamide]: 31.7% and greater than 25000 nM.

As a reminder, the inhibition is the share of the control response that was lost under treatment.
